From patent US8940310B2, “Methods of treatment using TLR7 and/or TLR9 inhibitors” (Dynavax Technologies Corporation, priority 2010, dated 2015)
Marks after values point to notes of the source that are not given here. [I] = hypoxanthine (inosine)

Assays:
[1] = High dosages of IRPs in rats (weight, deaths, histology); type: in vivo, Sprague Dawley rats; conditions: rat; for Heart: Cell Vacuolation, number of animals / Heart: Hemorrhage, number of animals / Heart: Mononuclear Cell Infiltration, number of animals / Heart: Necrosis, number of animals / Heart: No significant changes, number of animals / Liver: Liver changes, number of animals / Liver: Mixed cell infiltration, number of animals / Liver: Necrosis, number of animals / Liver: No significant changes, number of animals / Liver: Vacuolation, number of animals / Right Kidney: Hydronephrosis, number of animals / Right Kidney: Mineralization, number of animals / Right Kidney: Necrosis, number of animals / Right Kidney: No significant changes, number of animals / Right Kidney: Tubular basophilia, number of animals / Right Kidney: Tubular changes, number of animals: 6 animals
Procedure: To test the activity of IRPs at high dosages in rats, IRPs (SEQ ID NO:42 and SEQ ID NO:109) or a control (PBS) were subcutaneously administered to 8-9 weeks old, […], 3, 6, and 9 (n=6 per group). Rats were weighed prior to administration and on days 1, 3, 4, 6, 7, and 9. Organs were harvested at the end of the study, and organ weights and tissues levels of the oligonucleotides were determined. In addition, histolocial evaluation of the liver, kidney, and heart was performed.
Rats were weighed prior to administration and on days 1, 3, 6, 7, and 9. Organs were harvested at the end of the study, and organ weights and tissues levels of the oligonucleotides were determined. In addition, histological evaluation of the liver, kidney, and heart was performed.

[2] = Monomer and tetramer formation of IRPs, size-exclusion HPLC; type: physicochemical; conditions: 100 mg/mL in PBS and 0.5M KCl, room temperature, five weeks
Procedure: Solutions were prepared of the by mixing 100 mg/mL of the IRP sequences in PBS and 0.5M KCl and storing at room temperature for three to five weeks. The solutions were subsequently analyzed by size-exclusion HPLC.

[3] = test system: human B-cells; experiment: Human B-cells cultured in the presence of IRPs, IL-6; conditions: for B-cell stimulatory activity: FIG. 1C, percent IL-6 from CpG-ISS
Procedure: For the human B-cell assay, B-cells were purified from total blood cells obtained from healthy donors using magnetic beads (CD19 positive). Cells were resuspended in fresh medium (RPMI 1640 with 10% fetal calf serum, 50 units/mL penicillin, 50 μg/mL streptomycin, and 2 mM glutamine). At 48 hours, supernatants were collected and cytokine levels, IL-6, were measured using immunoassay.
To further investigate the effect of IRPs on B-cell stimulatory activity, a wide variety of IRP sequences were assayed for IL-6, along with positive and negative controls. The experiment was performed as described in Example 1 using doses of IRP of either 4.0 μM or 2.0 μM. The positive control was an immunostimulatory sequence (ISS) with SEQ ID NO:157. […] The results are presented as the average normalized IL-6 response over several experiments.

[4] = High dosages of IRPs in mice (weight, histology); type: in vivo, BALB/c mice; conditions: for Heart: Chronic inflammation, mean severity score / Heart: Mineralization, mean severity score / Liver: Liver changes, mean severity score / Liver: Mixed cell infiltration, mean severity score / Right Kidney: Tubular changes, mean severity score: 0 = no change to 4 = severe; for Liver: Liver changes, number of animals / Liver: Mixed cell infiltration, number of animals / Liver: No significan changes, number of animals / Right Kidney: No significant changes, number of animals / Right Kidney: Tubular basophilia, number of animals / Right Kidney: Tubular changes, number of animals: 6 animals; for Heart: No significant changes, number of animals: tissue missing in two animals
Procedure: To test the activity of IRPs at high dosages in mice, IRPs or a control (saline) were subcutaneously administered to BALB/c mice at a dosage of 4 mg/kg, 20 mg/kg, 50 mg/kg, or 100 mg/kg on days 1, 4, 7, and 10 (n=5 per group). Mice were weighed prior to administration and on days 2, 4, 7, 9, and 11. Serum cytokines were assayed at two hours post the first and third injections and 24 hours post the fourth injection. Organs were harvested at the end of the study, and organ weights and tissues levels of the oligonucleotides were determined. In addition, histological evaluation of the liver, kidney, and heart was performed.
Mice were weighed prior to administration and on days 1, 3, 4, 6, 7, and 9. Organs were harvested at the end of the study, and organ weights and tissues levels of the oligonucleotides were determined. In addition, histological evaluation of the liver, kidney, and heart was performed.

[5] = 10 mg/kg, 0 = no change to 4 = severe
[6] = 90 mg/kg, 0 = no change to 4 = severe
[7] = Experiment # 3, Max Conc 4.0 uM

Substance: 5′-TGC TGC TCC TGG AGI GGT GTT GT-3′ (DNA TGCTGCTCCTGGAGNGGTGTTGT; DNA, [I] at 15, backbone and methylation of C not given here) [SEQ ID NO:79]
- Heart: Cell Vacuolation, number of animals ([1]; 10 mg/kg): 0
- Heart: Hemorrhage, number of animals ([1]; 10 mg/kg): 0
- Heart: Mononuclear Cell Infiltration, number of animals ([1]; 10 mg/kg): 0
- Heart: Necrosis, number of animals ([1]; 10 mg/kg): 0
- Heart: No significant changes, number of animals ([1]; 10 mg/kg): 6
- Liver: Liver changes, number of animals ([1]; 10 mg/kg): 0
- Liver: Mixed cell infiltration, number of animals ([1]; 10 mg/kg): 6
- Liver: Necrosis, number of animals ([1]; 10 mg/kg): 0
- Liver: No significant changes, number of animals ([1]; 10 mg/kg): 0
- Liver: Vacuolation, number of animals ([1]; 10 mg/kg): 0
- Right Kidney: Hydronephrosis, number of animals ([1]; 10 mg/kg): 0
- Right Kidney: Mineralization, number of animals ([1]; 10 mg/kg): 2
- Right Kidney: Necrosis, number of animals ([1]; 10 mg/kg): 0
- Right Kidney: No significant changes, number of animals ([1]; 10 mg/kg): 1
- Right Kidney: Tubular basophilia, number of animals ([1]; 10 mg/kg): 0
- Right Kidney: Tubular changes, number of animals ([1]; 10 mg/kg): 5
- Liver: Mixed cell infiltration, mean severity score [1, 5]: 1.8
- Right Kidney: Mineralization, mean severity score [1, 5]: 1.0
- Right Kidney: Tubular changes, mean severity score [1, 5]: 1.1
- Heart: cellular vacuolation ([1]; 90 mg/kg): present in some animals
- Heart: hemorrhage and necrosis ([1]; 90 mg/kg): noted
- Kidney: tubular basophilia ([1]; 90 mg/kg): occurred
- Liver: hepatocellular cytoplasmic vacuolation ([1]; 90 mg/kg): hepatocellular cytoplasmic vacuolation
- Liver: hepatocellular necrosis ([1]; 90 mg/kg): hepatocellular necrosis
- Renal necrosis ([1]; 90 mg/kg): noted
- deaths two days after the first dose ([1]; 90 mg/kg SC, n=6): two rats died
- deaths two days after the second dose ([1]; 90 mg/kg SC, n=6): one rat died
- Heart: Cell Vacuolation, number of animals ([1]; 90 mg/kg): 2
- Heart: Hemorrhage, number of animals ([1]; 90 mg/kg): 2
- Heart: Mononuclear Cell Infiltration, number of animals ([1]; 90 mg/kg): 0
- Heart: Necrosis, number of animals ([1]; 90 mg/kg): 3
- Heart: No significant changes, number of animals ([1]; 90 mg/kg): 1
- Liver: Liver changes, number of animals ([1]; 90 mg/kg): 3
- Liver: Mixed cell infiltration, number of animals ([1]; 90 mg/kg): 3
- Liver: Necrosis, number of animals ([1]; 90 mg/kg): 2
- Liver: No significant changes, number of animals ([1]; 90 mg/kg): 0
- Liver: Vacuolation, number of animals ([1]; 90 mg/kg): 3
- Right Kidney: Hydronephrosis, number of animals ([1]; 90 mg/kg): 0
- Right Kidney: Mineralization, number of animals ([1]; 90 mg/kg): 1
- Right Kidney: Necrosis, number of animals ([1]; 90 mg/kg): 3
- Right Kidney: No significant changes, number of animals ([1]; 90 mg/kg): 0
- Right Kidney: Tubular basophilia, number of animals ([1]; 90 mg/kg): 2
- Right Kidney: Tubular changes, number of animals ([1]; 90 mg/kg): 3
- Heart: Cell Vacuolation, mean severity score [1, 6]: 1.5
- Heart: Hemorrhage, mean severity score [1, 6]: 3.5
- Heart: Necrosis, mean severity score [1, 6]: 2.0
- Liver: Liver changes, mean severity score [1, 6]: 1.8
- Liver: Mixed cell infiltration, mean severity score [1, 6]: 2.5
- Liver: Necrosis, mean severity score [1, 6]: 2.8
- Liver: Vacuolation, mean severity score [1, 6]: 2.3
- Right Kidney: Mineralization, mean severity score [1, 6]: 2.0
- Right Kidney: Necrosis, mean severity score [1, 6]: 4.0
- Right Kidney: Tubular basophilia, mean severity score [1, 6]: 2.8
- Right Kidney: Tubular changes, mean severity score [1, 6]: 2.0
- fraction in monomer form [2]: 100%
- Normalized IL-6 Response (Percentage of Positive Control) ([3]; Experiment # 1, Max Conc 4.0 uM): 33%
- Normalized IL-6 Response (Percentage of Positive Control) [3, 7]: 18%
- Normalized IL-6 Response (Percentage of Positive Control) ([3]; Experiment # 11, Max Conc 2.0 uM): 28%
- B-cell stimulatory activity [3]: low B-cell stimulatory activity
- Heart: Chronic inflammation, number of animals ([4]; 50 mg/kg): 2
- Heart: Mineralization, number of animals ([4]; 50 mg/kg): 1
- Heart: Chronic inflammation, mean severity score ([4]; 50 mg/kg): 2.0
- Heart: Mineralization, mean severity score ([4]; 50 mg/kg): 2.0
- Liver: Liver changes, mean severity score ([4]; 50 mg/kg): 1.0
- Liver: Mixed cell infiltration, mean severity score ([4]; 50 mg/kg): 1.0
- Liver: Liver changes, number of animals ([4]; 50 mg/kg): 6
- Liver: Mixed cell infiltration, number of animals ([4]; 50 mg/kg): 4
- Liver: No significan changes, number of animals ([4]; 50 mg/kg): 0
- Right Kidney: No significant changes, number of animals ([4]; 50 mg/kg): 6
- Right Kidney: Tubular basophilia, number of animals ([4]; 50 mg/kg): 0
- Right Kidney: Tubular changes, number of animals ([4]; 50 mg/kg): 0
- Heart: No significant changes, number of animals ([4]; 50 mg/kg): 1**
- Heart: Chronic inflammation, number of animals ([4]; 100 mg/kg): 1
- Heart: Mineralization, number of animals ([4]; 100 mg/kg): 2
- Heart: Chronic inflammation, mean severity score ([4]; 100 mg/kg): 3.0
- Heart: Mineralization, mean severity score ([4]; 100 mg/kg): 2.5
- Liver: Liver changes, mean severity score ([4]; 100 mg/kg): 2.0
- Liver: Mixed cell infiltration, mean severity score ([4]; 100 mg/kg): 2.0
- Right Kidney: Tubular changes, mean severity score ([4]; 100 mg/kg): 2.0
- Liver: Liver changes, number of animals ([4]; 100 mg/kg): 6
- Liver: Mixed cell infiltration, number of animals ([4]; 100 mg/kg): 6
- Liver: No significan changes, number of animals ([4]; 100 mg/kg): 0
- Right Kidney: No significant changes, number of animals ([4]; 100 mg/kg): 0
- Right Kidney: Tubular basophilia, number of animals ([4]; 100 mg/kg): 0
- Right Kidney: Tubular changes, number of animals ([4]; 100 mg/kg): 6
- Heart: No significant changes, number of animals ([4]; 100 mg/kg): 1**

Substance: 5′-TGC TGC TCC TGG AGI GGT TG-HEG-T-3′ (DNA TGCTGCTCCTGGAGNGGTTGNT; inosine, internal HEG spacer, chemistry not fully specified) [SEQ ID NO:144]
- Liver: hepatocellular cytoplasmic vacuolation ([1]; 10 mg/kg): hepatocellular cytoplasmic vacuolation
- Heart: cellular vacuolation ([1]; 90 mg/kg): present in some animals
- Kidney: tubular basophilia ([1]; 90 mg/kg): occurred
- Liver: hepatocellular cytoplasmic vacuolation ([1]; 90 mg/kg): hepatocellular cytoplasmic vacuolation
- Liver: hepatocellular necrosis ([1]; 90 mg/kg): hepatocellular necrosis
- fraction in monomer form [2]: 100%
- Normalized IL-6 Response (Percentage of Positive Control) [3, 7]: 10%
- B-cell stimulatory activity [3]: low B-cell stimulatory activity
- Heart: Chronic inflammation, number of animals ([4]; 100 mg/kg): 1
- Heart: Mineralization, number of animals ([4]; 100 mg/kg): 2
- Heart: Chronic inflammation, mean severity score ([4]; 100 mg/kg): 3.0
- Heart: Mineralization, mean severity score ([4]; 100 mg/kg): 2.5
- Liver: Liver changes, mean severity score ([4]; 100 mg/kg): 2.0
- Liver: Mixed cell infiltration, mean severity score ([4]; 100 mg/kg): 2.0
- Right Kidney: Tubular changes, mean severity score ([4]; 100 mg/kg): 2.0
- Liver: Liver changes, number of animals ([4]; 100 mg/kg): 6
- Liver: Mixed cell infiltration, number of animals ([4]; 100 mg/kg): 6
- Liver: No significan changes, number of animals ([4]; 100 mg/kg): 0
- Right Kidney: No significant changes, number of animals ([4]; 100 mg/kg): 0
- Right Kidney: Tubular basophilia, number of animals ([4]; 100 mg/kg): 0
- Right Kidney: Tubular changes, number of animals ([4]; 100 mg/kg): 6
- Heart: No significant changes, number of animals ([4]; 100 mg/kg): 1**
